Measurements from patent US20080119462A1, “METHOD FOR TREATING VASCULAR HYPERPERMEABLE DISEASE” (Sucampo AG, priority 2003, published 2008).

Target: T1, plasma SSAO (Rattus norvegicus, UniProt O08590)
T1 construct: The enzyme suspension prepared from blood plasma was pre-incubated with Compound A; from tissue; host or cells: rat blood plasma
T1 sequence (O08590 27-763 limits assumed): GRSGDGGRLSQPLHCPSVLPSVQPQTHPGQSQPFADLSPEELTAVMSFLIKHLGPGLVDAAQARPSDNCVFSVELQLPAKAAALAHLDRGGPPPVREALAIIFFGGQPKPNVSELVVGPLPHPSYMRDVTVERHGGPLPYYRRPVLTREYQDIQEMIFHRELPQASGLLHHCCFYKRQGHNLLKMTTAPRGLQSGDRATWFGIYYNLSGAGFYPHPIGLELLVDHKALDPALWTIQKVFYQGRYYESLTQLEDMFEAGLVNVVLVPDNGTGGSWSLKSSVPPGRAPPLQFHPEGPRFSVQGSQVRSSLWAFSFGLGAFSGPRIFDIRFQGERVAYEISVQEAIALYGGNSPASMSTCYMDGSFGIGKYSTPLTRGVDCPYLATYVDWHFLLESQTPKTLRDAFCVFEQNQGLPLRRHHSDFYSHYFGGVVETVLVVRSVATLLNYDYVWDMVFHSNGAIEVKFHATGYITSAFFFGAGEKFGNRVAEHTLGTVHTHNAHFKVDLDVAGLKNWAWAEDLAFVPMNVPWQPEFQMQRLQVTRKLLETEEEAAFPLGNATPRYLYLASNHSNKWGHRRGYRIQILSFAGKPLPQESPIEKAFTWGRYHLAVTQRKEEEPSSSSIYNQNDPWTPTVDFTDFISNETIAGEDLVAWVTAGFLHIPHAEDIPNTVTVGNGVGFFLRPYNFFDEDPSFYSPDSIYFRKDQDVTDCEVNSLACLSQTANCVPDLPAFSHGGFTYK
Assay: Plasma SSAO activity in STZ diabetic rats after treatment
Assay type: in vivo
Method: Diabetes in rats was induced with an intraperitoneal (i.p.) injection of 65 mg/ml/kg of streptozotocin (STZ) in 2 mmol/l citrate buffer (pH 4.5) after a 20-h fast. At the same time control rats were injected with an equal volume of 2 mmol/l citrate buffer. Plasma glucose level was checked by a calorimetric method. At day 3 of STZ treatment, the rats were diagnosed with diabetes showing a plasma glucose level of 350 mg/dl.
The treatment of Compound A was given daily from 2 weeks after STZ treatment for 2 weeks. At 24 hrs after final treatment of Compound A, the vascular permeability in oculus was investigated based on the leakage of dye into the vitreous 30 min after intravenous injection of fluorescein solution (40 mg/ml/kg). Permeability was expressed as vitreous/plasma ratio of fluorescein concentration measured by a fluorophotometer. At the same time, the plasma SSAO activity was checked by the radiochemical-enzyme assay using ^14C-benzylamine (2×10^−5 mol/l final concentration) as substrate.

## CC(=O)Nc1nc(CCc2ccc(NC(=N)N)cc2)cs1 [Compound A, N-{4-[2-(4-{[amino(imino)methyl]amino}phenyl)ethyl]-1,3-thiazol-2-yl}acetamide]
4 weeks after STZ treatment
  Effect on the increased plasma SSAO activity in diabetic rats (in words): dose-dependent inhibition
STZ diabetic rats, 4 weeks after STZ, Compound A treatment daily from 2 weeks after STZ, mean ± S.E.M., 10 rats
  Plasma SSAO activity: 2.51 ± 0.26 pmol/min/mL
